Like-named read-outs stand apart in the source and are kept apart here.
How the values were obtained:
[1] = molecular target: T1, soluble human BACE1 catalytic domain (Homo sapiens, UniProt P56817); test: BACE1 HTRF FRET assay; assay type: biochemical; settings: calculated from IC50 by Cheng-Prusoff; QSY7-APPswe-Eu substrate, pH 5.0
T1 construct: purified human BACE1 catalytic domain

hERG = molecular target: T2, hERG (Homo sapiens, UniProt Q12809); test: hERG rubidium efflux in hERG-CHO cells; assay type: cell-based; settings: CHO cells that express hERG (hERG-CHO); for inhibition at 30 min, 1.5 uG/mL: pH 7.4, 1.5 uG/mL, read-out: HERG Rb efflux % Inhib 1.5 uG/mL; for inhibition at 30 min, 5 uG/mL: pH 7.4, 5 uG/mL, read-out: HERG Rb efflux % Inhib 5 uG/mL
T2 construct: expressed in transfected cells; host or cells: CHO cells (hERG-CHO)
T2 sequence (Q12809 whole entry): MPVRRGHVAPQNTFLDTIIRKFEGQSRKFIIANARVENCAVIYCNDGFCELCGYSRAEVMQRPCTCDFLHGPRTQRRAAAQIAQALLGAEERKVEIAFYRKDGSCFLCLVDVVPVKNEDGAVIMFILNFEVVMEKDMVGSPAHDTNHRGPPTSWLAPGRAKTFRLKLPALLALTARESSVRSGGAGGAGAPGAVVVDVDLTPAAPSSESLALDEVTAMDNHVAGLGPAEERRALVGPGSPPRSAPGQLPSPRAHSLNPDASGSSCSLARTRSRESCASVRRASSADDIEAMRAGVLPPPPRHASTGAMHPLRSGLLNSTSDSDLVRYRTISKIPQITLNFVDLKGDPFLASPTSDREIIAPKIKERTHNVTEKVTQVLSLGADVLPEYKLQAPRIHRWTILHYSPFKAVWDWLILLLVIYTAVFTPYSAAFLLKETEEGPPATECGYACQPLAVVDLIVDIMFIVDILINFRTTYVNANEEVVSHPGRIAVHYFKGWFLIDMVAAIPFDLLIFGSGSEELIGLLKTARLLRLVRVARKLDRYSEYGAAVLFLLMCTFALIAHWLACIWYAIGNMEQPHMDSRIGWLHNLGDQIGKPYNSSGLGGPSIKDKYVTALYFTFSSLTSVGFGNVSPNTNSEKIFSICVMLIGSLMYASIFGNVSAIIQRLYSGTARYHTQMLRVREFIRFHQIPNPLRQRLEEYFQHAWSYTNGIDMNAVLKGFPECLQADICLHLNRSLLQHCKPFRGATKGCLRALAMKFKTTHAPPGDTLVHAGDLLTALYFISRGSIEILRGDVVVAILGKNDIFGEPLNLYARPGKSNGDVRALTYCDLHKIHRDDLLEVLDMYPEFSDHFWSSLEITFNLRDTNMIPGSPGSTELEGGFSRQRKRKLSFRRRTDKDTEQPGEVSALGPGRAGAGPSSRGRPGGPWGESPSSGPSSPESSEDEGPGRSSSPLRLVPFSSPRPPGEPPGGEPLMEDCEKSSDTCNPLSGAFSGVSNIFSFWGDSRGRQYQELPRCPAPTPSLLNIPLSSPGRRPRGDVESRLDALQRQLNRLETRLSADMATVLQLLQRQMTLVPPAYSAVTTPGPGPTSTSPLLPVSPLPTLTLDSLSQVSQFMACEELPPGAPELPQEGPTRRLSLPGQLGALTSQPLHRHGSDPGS
Procedure: The base solution for the rubidium efflux studies was 144 mM NaCl, 20 mM HEPES-NaOH (pH 7.4), 2 mM CaCl2, 1 mM MgCl2, and 11 mM glucose. To prepare the rubidium loading buffer 5.4 mM RbCl was added. The wash buffer was supplemented with 5.4 mM KCl. The depolarization buffer was prepared by adding 40 mM KCl to the wash buffer. Drugs were added as 4× stocks containing 10% DMSO with a resulting final DMSO concentration of 2.5%.
hERG-CHO cells were plated into 96-well flat-bottom dishes and returned to the incubator for 24 hours. On the day of study, culture medium was removed and replaced by a HEPES-buffered saline solution containing 5.4 mM RbCl. Cells were returned to the tissue culture incubator for 3 hours to permit rubidium loading. […] Plates were then washed 3× with HEPES buffered saline containing 5.4 mM KCl and zero rubidium. After the 3rd wash cells were depolarized by the addition of 200 μl HEPES buffered saline containing 45.4 mM KCl. Cells were incubated in the depolarization solution for 5 minutes to permit efflux of rubidium. Supernatants were then collected and analyzed for rubidium content using automated flame atomic absorbance spectroscopy (ICR-8000, Aurora Biosciences). Percent inhibition was quantified based on a signal window defined by no block (vehicle) and full block with 10 μM dofetilide. All pipetting steps for the rubidium efflux screen were implemented using a pipetting robot capable of making simultaneous additions and removals from 96 wells (Quadra-96).

CYP2D6 = molecular target: T3, CYP2D6 (Homo sapiens, UniProt P10635); test: CYP inhibition assay, human liver microsomes, CYP2D6; assay type: in vitro ADME
T3 construct: human liver microsomes (0.4 mg/ml); from tissue; host or cells: human liver microsomes
T3 sequence (P10635 whole entry): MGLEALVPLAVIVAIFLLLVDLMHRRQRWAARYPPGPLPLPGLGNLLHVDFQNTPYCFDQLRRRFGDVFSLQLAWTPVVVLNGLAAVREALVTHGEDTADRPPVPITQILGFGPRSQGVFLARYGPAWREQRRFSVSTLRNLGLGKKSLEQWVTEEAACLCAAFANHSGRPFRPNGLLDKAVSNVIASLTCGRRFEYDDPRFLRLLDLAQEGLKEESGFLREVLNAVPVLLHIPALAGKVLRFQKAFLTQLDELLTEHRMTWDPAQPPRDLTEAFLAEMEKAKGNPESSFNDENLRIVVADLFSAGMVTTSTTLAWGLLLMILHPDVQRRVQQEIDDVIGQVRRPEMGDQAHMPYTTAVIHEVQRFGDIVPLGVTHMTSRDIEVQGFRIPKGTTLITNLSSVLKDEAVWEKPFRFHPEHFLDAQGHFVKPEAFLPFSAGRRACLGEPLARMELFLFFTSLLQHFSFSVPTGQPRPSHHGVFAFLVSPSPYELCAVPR
Procedure: (§1) The test article was dissolved in methanol at a concentration of 5 mM. Dilutions of the stock solution were also prepared in methanol. The substrate concentration was kept near the Km value for each CYP reaction. The substrates were 100 μM phenacetin (O-deethylase reaction) for CYP1A2, 16 μM dextromethorphan (O-demethylase reaction) for CYP2D6, 100 μM testosterone (6β-hydroxylase reaction) and 5 μM midazolam (1′-hydroxylase reaction) for CYP3A4, 200 μM tolbutamide (4-hydroxylase reaction) for CYP2C9, 125 μM S-(+)-mephenyloin (4-hydroxylase reaction) for CYP2C19 and 5 μM paclitaxel (6[…]-hydroxylase reaction) for CYP2C8. The reactions were terminated by the addition of 35% perchloric acid to a final concentration of 4.5% (vol:vol). The concentrations of the metabolites formed from each substrate after incubation were determined by LC-MS/MS using a standard curve.
(§2) To evaluate metabolism/mechanism-based inhibition, the test article, at the stated concentrations (0 to 50 μM), was pre-incubated with human liver microsomes for 30 min at 37° C. in the presence of NADPH and in the absence of the substrates. After the pre-incubation step, the CYP substrates were added at the previously stated concentrations and the reactions were allowed to proceed as indicated in the previous paragraph.

CYP3A4 = molecular target: T4, CYP3A4 (Homo sapiens, UniProt P08684); test: CYP inhibition assay, human liver microsomes, CYP3A4; assay type: in vitro ADME
T4 construct: human liver microsomes (0.4 mg/ml); from tissue; host or cells: human liver microsomes
T4 sequence (P08684 whole entry): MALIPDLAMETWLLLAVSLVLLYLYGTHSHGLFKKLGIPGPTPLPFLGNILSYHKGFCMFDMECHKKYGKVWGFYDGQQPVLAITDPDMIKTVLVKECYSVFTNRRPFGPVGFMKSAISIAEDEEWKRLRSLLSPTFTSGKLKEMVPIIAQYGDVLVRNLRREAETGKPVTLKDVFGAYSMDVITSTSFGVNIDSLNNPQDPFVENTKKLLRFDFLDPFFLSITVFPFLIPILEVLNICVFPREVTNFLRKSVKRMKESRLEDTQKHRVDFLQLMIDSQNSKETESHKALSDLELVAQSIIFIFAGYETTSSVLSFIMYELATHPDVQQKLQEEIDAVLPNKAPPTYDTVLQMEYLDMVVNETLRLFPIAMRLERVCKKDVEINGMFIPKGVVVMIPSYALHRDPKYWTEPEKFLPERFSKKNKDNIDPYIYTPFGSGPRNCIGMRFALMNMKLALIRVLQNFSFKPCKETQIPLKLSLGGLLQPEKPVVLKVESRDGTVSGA

CYP2C9 = molecular target: T5, CYP2C9 (Homo sapiens, UniProt P11712); test: CYP inhibition assay, human liver microsomes, CYP2C9; assay type: in vitro ADME
T5 construct: human liver microsomes (0.4 mg/ml); from tissue; host or cells: human liver microsomes
T5 sequence (P11712 whole entry): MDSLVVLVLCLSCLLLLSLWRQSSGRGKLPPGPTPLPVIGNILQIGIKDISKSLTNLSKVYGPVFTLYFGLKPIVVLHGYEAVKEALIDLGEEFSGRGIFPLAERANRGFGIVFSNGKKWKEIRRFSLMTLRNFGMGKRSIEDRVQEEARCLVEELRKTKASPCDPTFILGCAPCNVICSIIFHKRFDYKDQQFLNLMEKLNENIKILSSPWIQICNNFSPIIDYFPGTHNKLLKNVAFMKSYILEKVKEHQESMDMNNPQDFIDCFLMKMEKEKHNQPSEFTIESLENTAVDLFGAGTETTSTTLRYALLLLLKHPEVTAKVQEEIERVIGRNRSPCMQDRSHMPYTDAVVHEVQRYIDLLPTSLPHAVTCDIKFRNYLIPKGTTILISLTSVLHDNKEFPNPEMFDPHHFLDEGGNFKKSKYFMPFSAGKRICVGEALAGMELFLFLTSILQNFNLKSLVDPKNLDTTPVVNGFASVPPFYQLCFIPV
Procedure: as §1, §2

BACE1 = molecular target: T6, BACE1 (Homo sapiens, UniProt P56817); test: BACE inhibitor whole cell IC50 determination using HEK293-APPswe/lon cells (Aβ40); assay type: cell-based; settings: 4 hours, Aβ40 in media, read-out: BACE1 A[…]40 IC50
T6 construct: endogenous in cells; host or cells: HEK293 stably transfected with human APP cDNA (Swedish and London mutations)
T6 sequence (P56817 46-501): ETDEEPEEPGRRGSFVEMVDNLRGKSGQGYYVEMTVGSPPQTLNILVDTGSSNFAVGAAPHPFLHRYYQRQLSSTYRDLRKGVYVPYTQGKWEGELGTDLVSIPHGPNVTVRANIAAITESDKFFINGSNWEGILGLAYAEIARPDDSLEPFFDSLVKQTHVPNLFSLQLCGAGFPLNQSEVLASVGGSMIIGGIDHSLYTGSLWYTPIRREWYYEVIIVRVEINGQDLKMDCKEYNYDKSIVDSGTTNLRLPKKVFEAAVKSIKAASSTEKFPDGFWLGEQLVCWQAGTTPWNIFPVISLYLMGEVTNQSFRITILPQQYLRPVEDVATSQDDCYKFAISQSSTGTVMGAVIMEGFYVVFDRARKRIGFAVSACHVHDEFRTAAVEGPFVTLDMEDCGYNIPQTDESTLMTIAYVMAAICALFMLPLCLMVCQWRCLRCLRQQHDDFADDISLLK

human liver Cathepsin D = molecular target: T7, human liver Cathepsin D (Homo sapiens, UniProt P07339); test: Human Cathepsin D FRET assay; assay type: biochemical; settings: selectivity with respect to Cathepsin D versus BACE1
T7 construct: Purified (>95%) human liver Cathepsin D; purchased Athens Research & Technology 16-12-030104; host or cells: human liver (tissue-derived)
T7 sequence (P07339 169-412 limits assumed): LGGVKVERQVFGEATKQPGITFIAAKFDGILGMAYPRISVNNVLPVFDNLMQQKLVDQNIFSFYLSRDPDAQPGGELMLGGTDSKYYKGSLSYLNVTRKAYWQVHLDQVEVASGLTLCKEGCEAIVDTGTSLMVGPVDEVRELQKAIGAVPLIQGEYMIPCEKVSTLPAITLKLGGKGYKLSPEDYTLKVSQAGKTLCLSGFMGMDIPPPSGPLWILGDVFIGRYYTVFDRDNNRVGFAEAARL
T7 sequence (P07339 65-161 limits assumed): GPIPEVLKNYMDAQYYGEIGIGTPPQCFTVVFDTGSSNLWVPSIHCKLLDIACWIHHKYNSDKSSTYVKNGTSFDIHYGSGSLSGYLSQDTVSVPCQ

[2] = 30 min pre-incubation with NADPH, read-out: CYP 2D6 IC50 pre
[3] = co-incubation, dextromethorphan substrate, read-out: CYP 2D6 IC50 co
[4] = 30 min pre-incubation with NADPH, read-out: CYP 3A4 IC50 pre
[5] = co-incubation, read-out: CYP 3A4 IC50 co
[6] = 30 min pre-incubation with NADPH, read-out: CYP 2C9 IC50 pre
[7] = co-incubation, tolbutamide substrate, read-out: CYP 2C9 IC50 co

T1 sequence (P56817 75-416 limits assumed): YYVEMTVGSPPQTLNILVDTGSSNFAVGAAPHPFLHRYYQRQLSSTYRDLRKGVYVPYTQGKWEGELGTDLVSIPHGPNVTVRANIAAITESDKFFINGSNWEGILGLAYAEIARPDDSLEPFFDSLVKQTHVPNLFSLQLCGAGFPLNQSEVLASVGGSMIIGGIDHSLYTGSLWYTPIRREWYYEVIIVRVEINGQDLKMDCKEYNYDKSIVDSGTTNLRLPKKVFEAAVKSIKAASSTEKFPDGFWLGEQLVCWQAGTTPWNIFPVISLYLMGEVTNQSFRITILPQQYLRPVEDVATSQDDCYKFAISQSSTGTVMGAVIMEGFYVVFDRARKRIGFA

Row | Structure (SMILES) | Ki [1] [µM] | IC50 (CYP2D6; [2]) [µM] | IC50 (CYP2D6; [3]) [µM] | IC50 (CYP3A4; [4]) [µM] | IC50 (CYP3A4; [5]) [µM] | IC50 (CYP2C9; [6]) [µM] | IC50 (CYP2C9; [7]) [µM] | IC50 (BACE1) [µM] | CathD Selectivity (human liver Cathepsin D) | inhibition at 30 min, 1.5 uG/mL (hERG) [%] | inhibition at 30 min, 5 uG/mL (hERG) [%]
1 | CCOc1nc(N2C[C@H]3C(=O)N(C)C(=N)N[C@@]3(c3ccc(Cl)s3)C2)nc(CC)c1F [Example 5] | 0.11 | 12.9 | 13.5 | 23 | > 30 | 4.2 | 7.3 |  |  | 10 | 22
2 | Cc1nc(N2C[C@H]3C(=O)N(C)C(=N)N[C@@]3(c3ccc(C#N)s3)C2)nc(C)c1F [Example 19] | 0.052 | > 30 | > 30 | ~30 | > 30 | > 30 | > 30 | 0.141 | 47 | -5 | 3
3 | [H]/N=C1\N[C@@]2(c3ccc(C#N)s3)CN(c3nc(C)c(F)c(OC)n3)C[C@H]2C(=O)N1C [Example 1] |  | > 30 | > 30 |  |  | > 30 | 23.4 |  |  | 1 | 10
4 | CCc1nc(N2C[C@H]3C(=O)N(C)C(=N)N[C@@]3(c3ccc(Cl)s3)C2)nc(OC)c1F [Example 4] |  | 19 | 22 | ~30 | > 30 | 5.5 | 7.9 |  |  | 17 | 49
5 | CCCc1nc(N2C[C@H]3C(=O)N(C)C(=N)N[C@@]3(c3ccc(Cl)s3)C2)nc(C)c1F [Example 15] | 0.0088 |  |  |  |  |  |  | 0.147 | 20 | 35 | 40
6 | Cc1nc(N2C[C@H]3C(=O)N(C)C(=N)N[C@@]3(c3cc(C#N)cs3)C2)nc(C2CC2)c1F [Example 8] | 0.031 | > 30 | > 30 | > 30 | > 30 | > 30 | > 30 | 0.21 | 82 |  | 
7 | CCCc1nc(N2C[C@H]3C(=O)N(C)C(=N)N[C@@]3(c3ccc(C#N)s3)C2)nc(C)c1F [Example 16] | 0.019 |  |  |  |  |  |  | 0.135 | 16 | 44 | 28
8 | CCCc1nc(N2C[C@H]3C(=O)N(C)C(=N)N[C@@]3(c3ccc(Cl)s3)C2)nc(OC)c1F [Example 10] |  | 8.2 | 6.1 | 11.9 | > 30 | 11.3 | 7.9 |  |  | 23 | 65

Further lines, with some results ahead:

Row | Ki [1] [µM] | IC50 (CYP2D6; [2]) [µM] | IC50 (CYP2D6; [3]) [µM] | IC50 (CYP3A4; [4]) [µM] | IC50 (CYP3A4; [5]) [µM] | IC50 (CYP2C9; [6]) [µM] | IC50 (CYP2C9; [7]) [µM] | IC50 (BACE1) [µM] | CathD Selectivity (human liver Cathepsin D) | Structure (SMILES) | inhibition at 30 min, 1.5 uG/mL (hERG) [%] | inhibition at 30 min, 5 uG/mL (hERG) [%]
9 | 0.157 |  |  |  |  |  |  |  |  | CCc1nc(N2C[C@H]3C(=O)N(C)C(=N)N[C@@]3(c3ccc(Cl)s3)C2)nc(C2CC2)c1Cl [Example 13] | 2 | 46
10 | 0.049 | 21 | > 30 | 12 | 16 | 19 | 19 |  |  | Cc1nc(N2C[C@H]3C(=O)N(C)C(=N)N[C@@]3(c3ccc(Cl)s3)C2)nc(C2CC2)c1F [Example 6] |  | 
11 |  | > 30 | > 30 |  |  | 22.8 | 20.3 |  |  | COc1nc(N2C[C@H]3C(=O)N(C)C(=N)N[C@@]3(c3ccc(Cl)s3)C2)nc(C)c1F [Example 2] | 4 | 22
12 | 0.03 |  |  |  |  |  |  | 0.561 |  | COc1nc(N2C[C@H]3C(=O)N(C)C(=N)N[C@@]3(c3ccc(Cl)s3)C2)nc(C2CC2)c1Cl [Example 12] | -7 | 34
13 | 0.047 | > 30 | > 30 | > 30 | > 30 | > 30 | > 30 |  |  | Cc1nc(N2C[C@H]3C(=O)N(C)C(=N)N[C@@]3(c3ccc(Cl)s3)C2)nc(C)c1F [Example 14] | 14 | 6
14 | 0.049 |  |  |  |  |  |  | 0.315 |  | Cc1nc(N2C[C@H]3C(=O)N(C)C(=N)N[C@@]3(c3ccc(C#N)s3)C2)nc(C2CC2)c1F [Example 9] |  | 
15 | 0.0096 |  |  |  |  |  |  | 0.215 | 62 | Cc1nc(N2C[C@H]3C(=O)N(C)C(=N)N[C@@]3(c3ccc(Cl)s3)C2)nc(C2CC2)c1Cl [Example 20] | -1 | 34
16 | 0.024 | > 30 | > 30 | > 30 | > 30 | > 30 | > 30 | 0.285 |  | CCc1nc(N2C[C@H]3C(=O)N(C)C(=N)N[C@@]3(c3ccc(Cl)s3)C2)nc(C)c1F [Example 7] |  | 
17 | 0.151 |  |  |  |  |  |  | 1.32 |  | COc1nc(N2C[C@H]3C(=O)N(C)C(=N)N[C@@]3(c3ccc(Cl)s3)C2)nc(C2CC2)c1F [Example 11] | 26 | 72
